{"source": "patent US7491545B2", "about": "“Excitation ratiometric fluoroscent biosensor for zinc ion at picomolar levels” (priority 2002, dated 2009)", "key": {"[1]": {"test_system": "cell membranes", "assay": "Cell permeation of donor fluorophore"}, "[2]": {"target": "holo carbonic anhydrase (Homo sapiens, UniProt P00918)", "conditions": "read-out: Kd of binding to holoprotein; cited from earlier work"}}, "note": "“Also recorded” adds a separate entry of the source.", "data": [{"smiles": "CN(C)c1ccc(-c2cnc(-c3ccc(S(N)(=O)=O)cc3)o2)cc1", "note": "[Dapoxyl sulfonamide]", "values": [{"measurement": "cell permeability", "setting": "[1]", "value": "readily penetrates cell membranes; also recorded: rapidly cell-permeant"}, {"measurement": "Kd", "setting": "[2]", "value": 200, "unit": "nM"}]}]}
